From PubChem BioAssay (NCI)
Values joined by “and” are separate entries in the source; they are usually repeats but may differ in a detail not shown here. Equal values may be shown once.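 Exposure lasted 48 hours, with cells grown in 96-well plates and compounds tested at five concentrations. GI50: concentration for 50% inhibition of growth. At the TGI there is no net growth.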

What was measured:
Test in all cases: inhibition of tumour cell growth, NCI panel, 48 h
CAKI-1 renal = test system: CAKI-1 renal
HS 578T breast = test system: HS 578T breast
MCF7 breast = test system: MCF7 breast
T-47D breast = test system: T-47D breast
DU-145 prostate = test system: DU-145 prostate
DMS 114 small cell lung = test system: DMS 114 small cell lung
DMS 273 small cell lung = test system: DMS 273 small cell lung
KM20L2 colon = test system: KM20L2 colon
XF 498 CNS = test system: XF 498 CNS

Structure (SMILES)	TGI (CAKI-1 renal) [µM]	TGI (HS 578T breast) [µM]	TGI (MCF7 breast) [µM]	TGI (T-47D breast) [µM]	GI50 (CAKI-1 renal) [µM]	GI50 (DU-145 prostate) [µM]	TGI (DU-145 prostate) [µM]	GI50 (HS 578T breast) [µM]	GI50 (T-47D breast)	GI50 (MCF7 breast) [µM]	TGI (DMS 114 small cell lung) [µM]	TGI (DMS 273 small cell lung) [µM]	TGI (KM20L2 colon) [µM]	TGI (XF 498 CNS) [µM]
Cc1[nH]c2ccccc2c1-c1cc(-c2cc(-c3c(C)[nH]c4ccccc34)nc(N)n2)nc(N)n1	> 100	> 100	> 100	> 100	–	–	–	–	–	–	–	–	–	–
C[C@@H]1Cc2c([nH]c3ccccc23)[C@@H](c2c(F)cc(NC3CN(CCCF)C3)cc2F)N1CC(F)(F)CO	15.7	19.1	4.27	18.5	3.66	6.52	20.2	3.73	1.06 µM	–	–	–	–	–
O=[N+]([O-])/C=C/c1cc2ccccc2[nH]1	33.7	50	13.1	33.9	–	–	28.8	–	–	–	–	–	–	–
CN(C)C/C=C/C(=O)Nc1cc2c(Nc3ccc(F)c(Cl)c3F)ncnc2cc1OCCOC(F)F	1.13	6.19	10.1	0.458	< 0.01	0.191	3.34	0.764	< 0.0127 µM	1.24	–	–	–	–
O=C(O)c1cc2ccccc2c(N=Nc2cc(C(F)(F)F)ccc2Cl)c1O	> 100	> 100	> 100	> 100	–	–	> 100	–	–	–	–	–	–	–
Cc1nc(CN2CCCCC2)c(O)c(=O)[nH]1	> 100	> 100	> 100	> 100	–	–	> 100	–	–	–	–	–	–	–
CC(C)C1CC2C(=O)N(c3ccccc3)C(=O)C2c2[nH]c3ccccc3c21 (stereo not given)	> 100	–	–	–	–	–	–	–	–	–	> 100	29.2	> 100	54.9
COC(=O)c1c(O)c([N+](=O)[O-])cc2c1c1c(n2Cc2ccccc2)C(=O)c2ccccc2C1=O	> 100	92.4	46.1	45.8	38.2	14.3	27.6	29.9	11.8 µM	5.86	–	–	–	–
Nc1nc2cc3ccc(C4CC(O)C(CO)O4)cc3cc2c(=O)[nH]1 (stereo not given)	> 100	> 100	> 100	> 100	> 100	> 100	> 100	> 100	> 100 µM	> 100	–	–	–	–
CS(=O)(=O)Nc1cccc(-c2cc(-c3ccccc3Cl)c(C#N)c(N)n2)c1	24.4	6.62	14.3	14.6	0.502	1.17	13	0.321	0.695 µM	0.478	–	–	–	–
Cc1cc2cn3c4ccc(O)cc4[nH]c(=O)c3c2cc1C	1.5	–	–	–	0.0323	0.0285	0.315	–	–	–	–	–	–	–
N#CC(C#N)N=Nc1ccc(Br)cc1	12.1	> 73.8	> 51.7	6.75	2.05	4.02	> 51.1	13.4	0.839 µM	2.74	–	–	–	–
OC(COc1ccc(F)cc1)Cn1cnc2c(Cl)ncnc21 (stereo not given)	37.6	> 100	> 100	> 100	19.9	> 100	> 100	37.9	> 100 µM	> 100	–	–	–	–
CN1CCN(c2cc(C(=O)Nc3cc4cc(-c5cnn(C)c5)ccc4cn3)ccn2)CC1	–	6.18	0.399	10.5	–	0.0971	11.4	0.276	0.0769 µM	0.0911	–	–	–	–
O=Cc1ccc(-c2ccc(-c3nc4ccccc4o3)cc2)s1	61.1	–	–	> 100	25.2	26.3	> 100	–	22.6 µM	–	–	–	–	–
Nc1ccccc1NC(=O)c1ccc(CCCC(=O)Nc2ccc(C3CC3N)cc2)cc1 (stereo not given)	14.4	> 100	> 100	> 100	2.46	2.66	18.5	2.82	0.562 µM	1.71	–	–	–	–
O=C(O)c1cc2ccccc2oc1=O	> 100	> 100	> 100	> 100	–	–	> 100	–	> 100 µM and 33.6 µM	–	–	–	–	–
S=C(Nc1ccc(Cl)cc1)Nc1ccc(-c2nc3ccccc3o2)cc1	39.8	79.2	51.4	82.8	12.3	17	38.6	21.2	16.8 µM	17.6	–	–	–	–
CCN1C2=NCCN2S(=O)(=O)c2ccccc21	> 100	> 100	> 100	> 100	–	–	> 100	–	–	–	–	–	–	–
O=C(/C=C/C=C/c1c(C2CC2)nc2ccccc2c1-c1ccc(F)cc1)c1cccs1	–	> 100	> 100	65.6	–	2.46	> 100	3.68	0.718 µM	0.467	–	–	–	–
CC(=O)N1c2ccccc2NC2=C(C(=O)N(Cc3ccccc3)C2(C)C)C1c1ccco1 (stereo not given)	> 25	> 21.9	> 25	> 25	3.41	0.115	> 25	0.976	4.88 µM	0.368	–	–	–	–
O=C(O)CCC/C=C\C[C@H]1C=CC(=O)/C1=C/C[C@@H](O)CCc1cccc(C(F)(F)F)c1	14.7	71.2	12.4	17.5	3.92	2.43	10.3	13.7	2.82 µM	0.444	–	–	–	–
CCCCCCCCCCCCCCCC[N+](C)(CCO)Cc1cnc[nH]1 (stereo not given)	4.47	35.9	13.9	28.1	0.622	1.23	4.2	2.85	2.8 µM	1.87	–	–	–	–
COC(=O)NC1(NC(=O)OC)NC(=O)c2cc(OC)c(OC)c(OC)c2N1	> 100	67.7	> 100	> 100	–	–	> 100	–	–	–	–	–	–	–
